The record followed here is ChEMBL document CHEMBL4616653, “Naphthacemycins from a Streptomyces sp. as Protein-Tyrosine Phosphatase Inhibitors” (J Nat Prod, 2020).

For the test, the target named is T1, Tyrosine-protein phosphatase non-receptor type 1 (Homo sapiens, UniProt P18031).
T1 sequence (P18031 whole entry): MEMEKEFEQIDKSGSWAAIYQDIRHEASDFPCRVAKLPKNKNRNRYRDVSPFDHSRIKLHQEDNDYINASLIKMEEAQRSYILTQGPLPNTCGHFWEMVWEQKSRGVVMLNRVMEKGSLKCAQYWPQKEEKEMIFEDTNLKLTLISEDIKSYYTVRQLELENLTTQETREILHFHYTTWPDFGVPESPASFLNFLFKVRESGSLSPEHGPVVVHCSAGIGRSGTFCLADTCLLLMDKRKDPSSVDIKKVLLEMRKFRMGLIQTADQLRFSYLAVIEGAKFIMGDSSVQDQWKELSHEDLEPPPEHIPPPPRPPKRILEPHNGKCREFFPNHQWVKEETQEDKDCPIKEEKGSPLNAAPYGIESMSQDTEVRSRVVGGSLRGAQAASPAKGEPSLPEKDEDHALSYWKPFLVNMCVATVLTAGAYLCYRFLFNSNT
Briefly: Inhibition of recombinant human PTP1B expressed in Escherichia coli using pNPP as substrate preincubated for 15 mins followed by substrate addition and measured after 60 mins.
As to `COc1cc(O)c(Cl)c(C)c1-c1cc(O)c(Cl)c2cc3c(c(O)c12)C(=O)c1c(O)c(Cl)c(O)c(Cl)c1C3(C)C`, the IC50 was determined as 2810 nM.

Turning to `COc1cc(O)c(Cl)c(C)c1-c1cc(O)cc2cc3c(c(O)c12)C(=O)c1c(cc(O)c(Cl)c1O)C3(C)C`, the IC50 stood at 2700 nM.

Regarding `COc1cc(O)c(Cl)c(C)c1-c1cc(O)c(Cl)c2cc3c(c(O)c12)C(=O)c1c(cc(O)c(Cl)c1O)C3(C)C`, the IC50 was determined as 8270 nM.

Turning to `COc1cc(O)c(Cl)c(C)c1-c1cc(O)cc2cc3c(c(O)c12)C(=O)c1c(O)cc(O)cc1C3(C)C`, the half-maximal inhibitory concentration (IC50) was determined as 3380 nM.

Take `COc1cc(O)cc(C)c1-c1cc(O)cc2cc3c(c(O)c12)C(=O)c1c(cc(O)c(Cl)c1O)C3(C)C`: the IC50 was 7690 nM.

Regarding `COc1cc(O)c(Cl)c(C)c1-c1cc(O)c(Br)c2cc3c(c(O)c12)C(=O)c1c(O)cc(O)cc1C3(C)C`, the IC50 came to 2620 nM.

On to `COc1cc(O)c(Cl)c(C)c1-c1cc(O)cc2cc3c(c(O)c12)C(=O)c1c(O)c(Cl)c(O)c(Cl)c1C3(C)C`, for which the IC50 came to 2110 nM.

On to `COc1c(Cl)c(O)c(Cl)c(C)c1-c1cc(O)c(Cl)c2cc3c(c(O)c12)C(=O)c1c(O)c(Cl)c(O)c(Cl)c1C3(C)C`, for which the IC50 was found to be 340 nM.

As usually defined, the IC50 is the concentration at which inhibition is half-maximal.
